As a reminder, the IC50 is the concentration that gives 50% inhibition.

Each structure is given as a SMILES string.

The assay concerns the target T1, human DP2 receptor (Homo sapiens, UniProt Q9Y5Y4).
T1 construct: expressed in transfected cells
T1 sequence (Q9Y5Y4 1-395): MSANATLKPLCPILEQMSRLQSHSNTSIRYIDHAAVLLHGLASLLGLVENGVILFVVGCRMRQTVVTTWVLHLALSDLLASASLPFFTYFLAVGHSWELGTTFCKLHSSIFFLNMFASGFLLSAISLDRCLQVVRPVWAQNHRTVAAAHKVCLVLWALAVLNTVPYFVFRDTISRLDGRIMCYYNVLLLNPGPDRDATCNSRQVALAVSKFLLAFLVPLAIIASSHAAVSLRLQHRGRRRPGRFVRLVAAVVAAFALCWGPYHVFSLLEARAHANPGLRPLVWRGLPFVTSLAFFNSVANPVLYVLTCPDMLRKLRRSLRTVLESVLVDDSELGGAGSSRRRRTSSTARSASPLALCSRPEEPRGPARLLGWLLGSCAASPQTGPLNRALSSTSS
Kind of assay: DP2/CRTH2 radioligand binding assay using [3H]PGD2. The note with it: hDP2 (CRTH2) binding assay, membranes of HEK293 cells expressing recombinant human DP2. As to the method: The ability of a compound to bind to the human DP2 receptor is assessed via a radioligand binding assay using [^3H]PGD2. HEK293 cells stably expressing recombinant human DP2 are resuspended in 10 mM Hepes, 7.4 containing 1 mM DTT, lysed and centrifuged at 75,000×g to pellet the membranes. The membranes are resuspended in 10 mM Hepes, 7.4 containing 1 mM DTT and 10% glycerol to approximately 5 mg protein/ml. Membranes (2-10 μg protein/well) are incubated in 96-well plates with 1 nM [^3H]PGD2 and test compound in Assay Buffer (50 mM Hepes, 10 mM MnCl2, 1 mM EDTA, plus or minus 0.2% human serum albumin, pH 7.4) for 60 minutes at room temperature. The reactions are terminated by rapid filtration through Whatman GF/C glass fibre filter plates. The filter plates were pre-soaked in 0.33% polyethylenimine for 30 minutes at room temperature then washed in Wash Buffer (50 mM Hepes, 0.5 M NaCl pH 7.4) prior to harvesting. After harvesting, the filter plates are washed 3 times with 1 ml cold Wash Buffer then dried. Scintillant is then added to the plates and the radioactivity retained on the filters is determined on a Packard TopCount (Perkin Elmer). Specific binding is determined as total radioactive binding minus non-specific binding in the presence of 10 μM PGD2. IC50s were determined using GraphPad prism analysis of drug titration curves.
`O=C(O)Cc1cccc(Oc2ccc(Br)cc2CN(C(=O)OCc2ccccc2)C2CCc3ccccc32)c1` (stereo in doubt) [Compound 1-6, (3-{2-[((R)-Benzyloxycarbonyl-indan-1-yl-amino)-methyl]-4-bromo-phenoxy}-phenyl)-acetic acid]: the IC50 was < 300 nM.

For `CC(=O)N(Cc1cc(C(F)(F)F)ccc1Oc1cccc(CC(=O)O)c1)C1CCc2ccccc21` (stereo in doubt) [Compound 1-13, (3-{2-[((R)-Acetyl-indan-1-yl-amino)-methyl]-4-trifluoromethyl-phenoxy}-phenyl)-acetic acid], the IC50 was < 300 nM.

`CC(=O)N(Cc1cc(C(F)(F)F)ccc1Oc1cccc(CC(=O)O)c1)C1CCc2ccccc21` (stereo in doubt) [Compound 1-14, (3-{2-[((S)-Acetyl-indan-1-yl-amino)-methyl]-4-trifluoromethyl-phenoxy}-phenyl)-acetic acid]: the IC50 was < 300 nM.

As for `COC(=O)N(Cc1cc(C(F)(F)F)ccc1Oc1cccc(CC(=O)O)c1)C1CCc2ccccc21` (stereo in doubt) [Compound 1-19, (3-{2-[((R)-Indan-1-yl-methoxycarbonyl-amino)-methyl]-4-trifluoromethyl-phenoxy}-phenyl)-acetic acid], the IC50 was < 300 nM.

Consider `CC(=O)N(CCc1ccccc1)Cc1cc(Br)ccc1Oc1cccc(CC(=O)O)c1` [Compound 1-1, (3-{2-[(Acetyl-phenethyl-amino)-methyl]-4-bromo-phenoxy}-phenyl)-acetic acid], for which the IC50 is < 300 nM.

Regarding `CC(=O)N(Cc1cc(Br)ccc1Oc1cccc(CC(=O)O)c1)C(C)(C)Cc1ccc(F)cc1` [Compound 1-2, {3-[2-({Acetyl-[2-(4-fluoro-phenyl)-1,1-dimethyl-ethyl]-amino}-methyl)-4-bromo-phenoxy]-phenyl}-acetic acid], the IC50 is < 300 nM.

`COC(=O)N(Cc1ccccc1)Cc1cc(Br)ccc1Oc1cccc(CC(=O)O)c1` [Compound 1-3, (3-{2-[(Benzyl-methoxycarbonyl-amino)-methyl]-4-bromo-phenoxy}-phenyl)-acetic acid]: the IC50 was < 300 nM.

As to `COC(=O)N(CCc1ccccc1)Cc1cc(Br)ccc1Oc1cccc(CC(=O)O)c1` [Compound 1-4, (3-{4-Bromo-2-[(methoxycarbonyl-phenethyl-amino)-methyl]-phenoxy}-phenyl)-acetic acid], the IC50 is < 300 nM.

`COC(=O)N(Cc1cc(Br)ccc1Oc1cccc(CC(=O)O)c1)[C@@H](C)Cc1ccccc1` [Compound 1-5, [3-(4-Bromo-2-{[methoxycarbonyl-((S)-1-methyl-2-phenyl-ethyl)-amino]-methyl}-phenoxy)-phenyl]-acetic acid]: the IC50 is < 300 nM.

For the compound `COc1ccc(CC(=O)O)cc1Oc1ccc(Br)cc1CN[C@H]1c2ccccc2C[C@H]1O` [Compound 1-7, (3-{4-Bromo-2-[((1S,2R)-2-hydroxy-indan-1-ylamino)-methyl]-phenoxy}-4-methoxy-phenyl)-acetic acid], the IC50 is > 1000 nM.

`CCN(Cc1cc(Br)ccc1Oc1cc(CC(=O)O)ccc1OC)C(C)=O` [Compound 1-8, (3-{2-[(Acetyl-ethyl-amino)-methyl]-4-bromo-phenoxy}-4-methoxy-phenyl)-acetic acid]: the IC50 was < 300 nM.

As to `COc1ccc(CC(=O)O)cc1Oc1ccc(Br)cc1CN(Cc1ccccc1)C(C)=O` [Compound 1-9, (3-{2-[(Acetyl-benzyl-amino)-methyl]-4-bromo-phenoxy}-4-methoxy-phenyl)-acetic acid], the IC50 is < 300 nM.

`CCN(Cc1cc(Br)ccc1Oc1cc(CC(=O)O)ccc1OC)C(=O)OC` [Compound 1-10, (3-{4-Bromo-2-[(ethyl-methoxycarbonyl-amino)-methyl]-phenoxy}-4-methoxy-phenyl)-acetic acid]: the IC50 is < 300 nM.

For the compound `COC(=O)N(Cc1ccccc1)Cc1cc(Br)ccc1Oc1cc(CC(=O)O)ccc1OC` [Compound 1-11, (3-{2-[(Benzyl-methoxycarbonyl-amino)-methyl]-4-bromo-phenoxy}-4-methoxy-phenyl)-acetic acid], the IC50 is < 300 nM.

Turning to `C[C@H](NCc1cc(C(F)(F)F)ccc1Oc1cccc(CC(=O)O)c1)[C@H](O)c1ccccc1` [Compound 1-12, (3-{2-[((1S,2R)-2-Hydroxy-1-methyl-2-phenyl-ethylamino)-methyl]-4-trifluoromethyl-phenoxy}-phenyl)-acetic acid], the concentration for half-maximal inhibition (IC50) was > 1000 nM.

On to `O=C(O)Cc1cccc(Oc2ccc(C(F)(F)F)cc2CNC(=O)c2ccc(Cl)cc2)c1` [Compound 1-15, (3-{2-[(4-Chloro-benzoylamino)-methyl]-4-trifluoromethyl-phenoxy}-phenyl)-acetic acid], for which the IC50 is > 300 nM.

Take `CN(Cc1cc(C(F)(F)F)ccc1Oc1cccc(CC(=O)O)c1)C(=O)Cc1ccccc1` [Compound 1-16, (3-{2-[(Methyl-phenylacetyl-amino)-methyl]-4-trifluoromethyl-phenoxy}-phenyl)-acetic acid]: the IC50 was < 300 nM.

Consider `CCN(Cc1cc(C(F)(F)F)ccc1Oc1cccc(CC(=O)O)c1)C(=O)c1ccccc1` [Compound 1-17, (3-{2-[(Benzoyl-ethyl-amino)-methyl]-4-trifluoromethyl-phenoxy}-phenyl)-acetic acid], for which the IC50 was < 300 nM.

For `CCN(Cc1cc(C(F)(F)F)ccc1Oc1cccc(CC(=O)O)c1)C(=O)Cc1ccccc1` [Compound 1-18, (3-{2-[(Ethyl-phenylacetyl-amino)-methyl]-4-trifluoromethyl-phenoxy}-phenyl)-acetic acid], the IC50 was > 300 nM.

On to `COC(=O)N(Cc1cc(C(F)(F)F)ccc1Oc1cccc(CC(=O)O)c1)C1Cc2ccccc2C1` [Compound 1-20, (3-{2-[(Indan-2-yl-methoxycarbonyl-amino)-methyl]-4-trifluoromethyl-phenoxy}-phenyl)-acetic acid], for which the IC50 is < 300 nM.

`CN(Cc1cc(C(F)(F)F)ccc1Oc1cccc(CC(=O)O)c1)C(=O)OCc1ccccc1` [Compound 1-21, (3-{2-[(Benzyloxycarbonyl-methyl-amino)-methyl]-4-trifluoromethyl-phenoxy}-phenyl)-acetic acid]: the IC50 was < 300 nM.

As for `O=C(O)Cc1cccc(Oc2ccc(C(F)(F)F)cc2CNS(=O)(=O)c2ccc(Cl)cc2)c1` [Compound 1-22, (3-{2-[(4-Chloro-benzenesulfonylamino)-methyl]-4-trifluoromethyl-phenoxy}-phenyl)-acetic acid], the IC50 was < 300 nM.

As for `CN(Cc1cc(C(F)(F)F)ccc1Oc1cccc(CC(=O)O)c1)S(=O)(=O)c1ccc(Cl)cc1` [Compound 1-23, [3-(2-{[(4-Chloro-benzenesulfonyl)-methyl-amino]-methyl}-4-trifluoromethyl-phenoxy)-phenyl]-acetic acid], the IC50 is < 300 nM.

As for `CN(Cc1cc(C(F)(F)F)ccc1Oc1cccc(CC(=O)O)c1)S(=O)(=O)c1ccccc1C(F)(F)F` [Compound 1-24, [3-(2-{[Methyl-(2-trifluoromethyl-benzenesulfonyl)-amino]-methyl}-4-trifluoromethyl-phenoxy)-phenyl]-acetic acid], the IC50 was > 300 nM.

In the case of `COc1ccc(S(=O)(=O)N(C)Cc2cc(C(F)(F)F)ccc2Oc2cccc(CC(=O)O)c2)cc1` [Compound 1-25, [3-(2-{[(4-Methoxy-benzenesulfonyl)-methyl-amino]-methyl}-4-trifluoromethyl-phenoxy)-phenyl]-acetic acid], the IC50 was > 300 nM.

As to `CCN(Cc1cc(C(F)(F)F)ccc1Oc1cccc(CC(=O)O)c1)S(=O)(=O)c1ccc(OC)cc1` [Compound 1-26, [3-(2-{[Ethyl-(4-methoxy-benzenesulfonyl)-amino]-methyl}-4-trifluoromethyl-phenoxy)-phenyl]-acetic acid], the concentration for half-maximal inhibition (IC50) was < 300 nM.

As to `CCN(Cc1cc(C(F)(F)F)ccc1Oc1cccc(CC(=O)O)c1)S(=O)(=O)c1ccc(C)cc1` [Compound 1-27, [3-(2-{[Ethyl-(toluene-4-sulfonyl)-amino]-methyl}-4-trifluoromethyl-phenoxy)-phenyl]-acetic acid], the IC50 was < 300 nM.

With `CCN(Cc1cc(C(F)(F)F)ccc1Oc1cccc(CC(=O)O)c1)S(=O)(=O)c1ccc(S(C)(=O)=O)cc1` [Compound 1-28, [3-(2-{[Ethyl-(4-methanesulfonyl-benzenesulfonyl)-amino]-methyl}-4-trifluoromethyl-phenoxy)-phenyl]-acetic acid], the IC50 is > 300 nM.

With `CCN(Cc1cc(C(F)(F)F)ccc1Oc1cccc(CC(=O)O)c1)S(=O)(=O)c1ccc(C(C)=O)cc1` [Compound 1-29, [3-(2-{[(4-Acetyl-benzenesulfonyl)-ethyl-amino]-methyl}-4-trifluoromethyl-phenoxy)-phenyl]-acetic acid], the IC50 is < 300 nM.
